The text below walks through data of patent US7084127B2, “C2,5′-disubstituted and N6, C2,5′-trisubstituted adenosine derivatives and their different uses” (Universiteit Leiden, priority 2001, dated 2006).

SMILES strings stand for the structures.

One may read the Ki as a measure of affinity in units of concentration, obtained from inhibition or displacement. A word on the melting point: it is the temperature of the solid-liquid transition. By Emax is commonly meant the greatest response seen or fitted, relative to the assay's reference. As a reminder, the EC50 is the concentration that produces a half-maximal response. The low end stands for an effect from little substance, the high end for a need for much substance.

Data set [1] has as its target T1, A2A receptor in rat striatum (Rattus norvegicus, UniProt P30543).
T1 construct: the A2A receptor in rat striatum; from tissue; host or cells: rat striatum
Description: Radioligand binding, displacement of [3H]ZM241385 from rat striatal membranes.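 Also: displacement assays run in the absence of GTP.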 To be noted: [3H]ZM241385, rat striatal membranes. A general note: Displacement assays read how much labelled ligand stays bound in the presence of the test substance.
Description: (§1) Incubations were carried out for 1 hr at 37° C. and were terminated by rapid filtration over Whatman GF/B filters, using a Brandell cell harvester (Brandell, Gaithersburg, Md.). Tubes were washed three times with 3 ml of buffer. Radioactivity was determined in a Beckman 5500B γ-counter. Nonspecific binding was determined in the presence of 10^−5 M R-PIA.
(§2) All compounds were tested in radioligand binding assays to determine their affinities for the adenosine A1 receptor in rat brain cortex, the A2A receptor in rat striatum and the human A3 receptor as expressed in HEK 293 cells (Table 2). […] AB-MECA, an A3 receptor agonist, was also used. Displacement experiments were performed in the absence of GTP.

The target in data set [2] is T2, human adenosine A1 receptors expressed in CHO cells (Homo sapiens, UniProt P30542).
T2 construct: expressed in transfected cells; host or cells: CHO cells
T2 sequence (P30542 1-326): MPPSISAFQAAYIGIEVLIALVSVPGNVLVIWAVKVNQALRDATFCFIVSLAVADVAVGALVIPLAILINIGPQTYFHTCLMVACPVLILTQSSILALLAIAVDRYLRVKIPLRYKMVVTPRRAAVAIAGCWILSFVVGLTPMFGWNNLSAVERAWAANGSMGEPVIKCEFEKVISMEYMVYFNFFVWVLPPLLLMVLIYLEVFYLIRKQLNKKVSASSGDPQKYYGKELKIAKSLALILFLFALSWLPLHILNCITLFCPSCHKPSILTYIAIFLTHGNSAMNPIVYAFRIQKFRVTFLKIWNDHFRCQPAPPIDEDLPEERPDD
In words: cAMP assay A1 (inhibition of forskolin-induced cAMP production). Type of data set: cell-based. Particulars: compared to reference full agonist CPA (10 μM) in A1 CHO cells; tested at ±100 × Ki; ±SEM, n = 3; forskolin 10 μM. How it is done: cAMP assay A1 and A3 CHO cells expressing either the human adenosine A1 or A3 receptor were grown overnight as a monolayer in 24 wells tissue culture plates (400 μl/well; 2×10^5cells/well). cAMP generation was performed in Dulbecco's Modified Eagles Medium (DMEM)/N-2-hydroxyethylpiperazin-N′-2-ethansulfonic acid (HEPES) buffer (0.60 g HEPES/50 ml DMEM pH 7.4). […] After incubation for 40 minutes at 37° C., 100 μl forskolin (final concentration 10 μM) was added. After 15 minutes at 37° C., the reaction was terminated by removing the medium and adding 200 μL 0.1 M HCl. Wells were stored at −20° C. until assay
The amounts of cAMP were determined after a protocol with cAMP binding protein^28 with the following minor modifications. As a buffer was used 150 mM K2HPO4/10 mM EDTA/0.2% Bovine Serum Albumine (BSA) at pH 7.5. Samples (20 μl+30 μl 0.1 M HCl) were incubated for at least 2.5 hours at 0° C. before filtration over Whatman GF/B filters. Filters were additionally rinsed with 2×2 ml TrisHCl buffer (pH 7.4, 4° C.). Filters were counted in Packard Emulsifier Safe scintillation fluid (3.5 ml) after 24 hours of extraction. […]
(Cyclic AMP is a second messenger, typically raised through Gs and lowered through Gi signalling.)

Data set [3] deals with T3, adenosine A1 receptor in rat brain cortex (Rattus norvegicus, UniProt P25099).
T3 construct: the adenosine A1 receptor in rat brain cortex; from tissue; host or cells: rat brain cortex
T3 sequence (P25099 1-326): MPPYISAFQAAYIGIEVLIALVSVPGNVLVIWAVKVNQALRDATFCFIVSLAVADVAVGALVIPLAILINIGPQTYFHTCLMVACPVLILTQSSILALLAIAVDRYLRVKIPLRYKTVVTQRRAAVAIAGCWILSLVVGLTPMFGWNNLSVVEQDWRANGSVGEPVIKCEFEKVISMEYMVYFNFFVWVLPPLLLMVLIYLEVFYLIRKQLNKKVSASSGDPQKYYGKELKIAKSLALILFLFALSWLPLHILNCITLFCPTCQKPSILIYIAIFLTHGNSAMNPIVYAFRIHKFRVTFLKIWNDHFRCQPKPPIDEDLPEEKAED
Description: Radioligand binding, displacement of [3H]DPCPX from rat cortical membranes. To be noted: ligand 10^−5 M.
Description: as §1, §2

Data set [4] addresses T4, human A3 receptor as expressed in HEK 293 cells (Homo sapiens, UniProt P0DMS8).
T4 construct: expressed in transfected cells; host or cells: HEK 293 cells (membrane suspension)
T4 sequence (P0DMS8 1-318): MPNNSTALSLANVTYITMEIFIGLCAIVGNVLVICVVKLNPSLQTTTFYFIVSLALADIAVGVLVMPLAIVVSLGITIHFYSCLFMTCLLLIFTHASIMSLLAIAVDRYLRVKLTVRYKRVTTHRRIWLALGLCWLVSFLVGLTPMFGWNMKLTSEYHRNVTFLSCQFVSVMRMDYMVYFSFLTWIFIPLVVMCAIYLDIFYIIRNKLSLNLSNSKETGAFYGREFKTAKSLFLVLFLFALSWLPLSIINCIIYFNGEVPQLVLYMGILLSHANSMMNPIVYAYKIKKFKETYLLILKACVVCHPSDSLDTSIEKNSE
Description: Radioligand binding, displacement of [125I]AB MECA, HEK 293 cell membranes.
Description: as §1, §2

In data set [5] the target is T5, human adenosine A2A receptors expressed in CHO cells (Homo sapiens, UniProt P29274).
T5 construct: expressed in transfected cells; host or cells: CHO cells
T5 sequence (P29274 whole entry): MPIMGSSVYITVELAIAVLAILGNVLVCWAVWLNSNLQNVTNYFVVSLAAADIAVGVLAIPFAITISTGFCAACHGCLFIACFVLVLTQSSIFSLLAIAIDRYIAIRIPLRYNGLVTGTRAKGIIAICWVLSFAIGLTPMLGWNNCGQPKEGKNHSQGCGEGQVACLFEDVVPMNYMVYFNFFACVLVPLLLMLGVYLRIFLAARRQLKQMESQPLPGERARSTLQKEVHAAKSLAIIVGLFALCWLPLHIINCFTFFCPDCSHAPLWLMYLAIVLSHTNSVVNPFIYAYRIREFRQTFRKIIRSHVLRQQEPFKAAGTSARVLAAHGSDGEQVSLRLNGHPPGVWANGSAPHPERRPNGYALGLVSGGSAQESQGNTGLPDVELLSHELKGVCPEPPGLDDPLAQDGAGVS
Description: cAMP assay A2A (stimulation of cAMP production). To be noted: for Emax: CHO, read-out: Emax (%) A2A; for EC50: cAMP production, human A2A in CHO cells. The format is cell-based.
Description: cAMP assay A2A CHO cells expressing human adenosine A2A receptors were grown overnight as a monolayer in 24 wells tissue culture plates (400 μL/well; 2×10^5 cells/well). cAMP generation was performed in Dulbecco's Modified Eagles Medium (DMEM)/N-2-hydroxyethylpiperazin-N′-2-ethanesulfonic acid (HEPES) buffer (0.60 g HEPES/50 mL DMEM pH 7.4). To each well, washed three times with DMEM/HEPES buffer (250 μλ), 100 μl DMEM/HEPES buffer, 100 μl adenosine deaminase (final concentration 5 IU/ml) and 100 μl of a mixture of rolipram and cilostamide (final concentration 50 μM each) were added. After incubation for 40 minutes at 37° C., 100 μl agonist was added. […] After 15 minutes at 37° C., the reaction was terminated by removing the medium and adding 200 μl 0.1 M HCl. Wells were stored at −20° C. until assay.
The amounts of cAMP were determined after a protocol with cAMP binding protein^36 with the following minor modifications. As a buffer was used 150 mM K2HPO4/10 mM EDTA/0.2% Bovine Serum Albumine (BSA) at pH 7.5. Samples (20 μl+30 μl 0.1 M HCl) were incubated for at least 2.5 hours at 0° C. before filtration over Whatman GF/B filters. […] Filters were counted in Packard Emulsifier Safe scintillation fluid (3.5 ml) after 24 hours of extraction.
Data Analysis Apparent Ki and EC50 values were computed from the displacement curves by non-linear regression of the competition curves with the software package Prism (Graph Pad, San Diego, Calif.)

In data set [6] the target is T6, human adenosine A3 receptor (Homo sapiens, UniProt P0DMS8).
T6 construct: expressed in transfected cells; HEK 293 cells according to b145 and b219
T6 sequence (P0DMS8 1-318): T4 sequence (P0DMS8 1-318)
Description: cAMP assay A3 (inhibition of forskolin-induced cAMP production). Type of data set: cell-based.
Description: cAMP assay A3 CHO cells expressing the human adenosine A3 receptor were grown overnight as a monolayer in 24 wells tissue culture plates (400 μl/well; 2×10^5 cells/well). cAMP generation was performed in Dulbecco's Modified Eagles Medium (DMEM)/N-2-hydroxyethylpiperazin-N′-2-ethansulfonic acid (HEPES) buffer (0.60 g HEPES/50 ml DMEM pH 7.4). […] After incubation for 40 minutes at 37° C., 100 μl forskolin (final concentration 10 μM) was added. After 15 minutes at 37° C., the reaction was terminated by removing the medium and adding 200 μl 0.1 M HCl. Wells were stored at −20° C. until assay. The amounts of cAMP were determined after a protocol with cAMP binding protein^36 with the following minor modifications. As a buffer was used 150 mM K2HPO4/10 mM EDTA/0.2% Bovine Serum Albumine (BSA) at pH 7.5. Samples (20 μl+30 μl 0.1 M HCl) were incubated for at least 2.5 hours at 0° C. before filtration over Whatman GF/B filters. […] Filters were counted in Packard Emulsifier Safe scintillation fluid (3.5 ml) after 24 hours of extraction.
All compounds were also tested in functional assays.
The ability of the compounds to inhibit forskolin-stimulated (10 μM) cAMP production via the adenosine A3 receptor was also studied.
The amounts of cAMP were determined after a protocol with cAMP binding protein^28 with the following minor modifications. As a buffer was used 150 mM K2HPO4/10 mM EDTA/0.2% Bovine Serum Albumine (BSA) at pH 7.5. Samples (20 μl+30 μl 0.1 M HCl) were incubated for at least 2.5 hours at 0° C. before filtration over Whatman GF/B filters. […] Filters were counted in Packard Emulsifier Safe scintillation fluid (3.5 ml) after 24 hours of extraction.

T1 sequence (P30543 whole entry): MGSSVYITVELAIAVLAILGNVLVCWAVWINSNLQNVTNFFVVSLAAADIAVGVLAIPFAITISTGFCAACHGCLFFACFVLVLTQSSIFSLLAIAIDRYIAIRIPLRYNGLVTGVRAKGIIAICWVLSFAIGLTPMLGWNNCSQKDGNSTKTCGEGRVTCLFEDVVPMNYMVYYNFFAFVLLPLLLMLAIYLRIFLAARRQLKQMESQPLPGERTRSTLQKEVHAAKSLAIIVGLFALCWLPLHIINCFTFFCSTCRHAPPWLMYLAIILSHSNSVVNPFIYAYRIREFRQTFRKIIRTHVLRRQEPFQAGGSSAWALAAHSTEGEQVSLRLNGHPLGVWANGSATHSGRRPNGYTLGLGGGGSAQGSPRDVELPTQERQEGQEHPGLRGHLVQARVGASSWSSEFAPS

`COC[C@H]1O[C@@H](n2cnc3c(N)ncnc32)[C@H](O)[C@@H]1O` [Compound 66, 5′-O-methyladenosine] had a melting point of 112 to 114 °C. The compound also yielded a Ki in data set [1] of 261 ± 65 nM. In data set [2], the “% inhib. A1 of forskolin-induced cAMP” value stood at 75 ± 3%.

Regarding `Nc1nc(Cl)nc2c1ncn2[C@@H]1O[C@H](COC2CC2)[C@@H](O)[C@H]1O` [Compound 81, 2-Chloro-5′-O-cyclopropyladenosine], the melting point lay in the range of 122 to 124 °C. The compound further had a Ki in data set [1] of 885 ± 89 nM. The “% inhib. A1 of forskolin-induced cAMP” value in data set [2] was 49 ± 9%.

Consider `CCOC[C@H]1O[C@@H](n2cnc3c(N)nc(Cl)nc32)[C@H](O)[C@@H]1O` [Compound 75, 2-Chloro-5′-O-ethyladenosine], for which the melting point is 117 to 119 °C. Besides, the affinity in data set [1] corresponds to a Ki of 659 ± 168 nM. For the same compound, the “% inhib. A1 of forskolin-induced cAMP” value in data set [2] is given as 67 ± 7%.

For the compound `COC[C@H]1O[C@@H](n2cnc3c(N)nc(Cl)nc32)[C@H](O)[C@@H]1O` [Compound 69, 2-Chloro-5′-O-methyladenosine], the melting point fell in the range of 200 to 202 °C. In data set [1], this compound returned a Ki of 284 ± 55 nM. Further, in data set [2], the “% inhib. A1 of forskolin-induced cAMP” value turned out to be 78 ± 4%.

For `CC(C)CC=NNc1nc(N)c2ncn([C@@H]3O[C@H](CO)[C@@H](O)[C@H]3O)c2n1` [Compound 3, 2-(N′-3-Methyl-1-butylidenehydrazino)adenosine], in data set [3], the “% displacement at 10^−5 M A1” value stood at 18.9%. For the same compound, the Ki in data set [1] came out at 20 ± 7 nM; in data set [4], 38.3 ± 3.3 nM. Also, the Emax in data set [5] is 92 ± 2%. A half-maximal response in data set [5] (EC50) required 1.1 ± 0.2 µM. In data set [5] (compared to full agonist CGS 21680), the “agonist behaviour, cAMP production via adenosine A2A receptor” value is on record as “full agonists”. In data set [6] (compared to reference full agonist Cl-IB-MECA), the “agonist behaviour, inhibition of forskolin-induced cAMP via adenosine A3 receptor” value was “partial agonist”. In data set [6] (read-out: Emax (%) A3), the Emax at 3 µM was 24%.

Take `CCOC[C@H]1O[C@@H](n2cnc3c(N)ncnc32)[C@H](O)[C@@H]1O` [Compound 72, 5′-O-Ethyladenosine]: the melting point is 110 to 112 °C. Affinity in data set [1] was put at a Ki of 415 ± 69 nM. Besides, the “% inhib. A1 of forskolin-induced cAMP” value in data set [2] came out at 57 ± 11%.

Take `CC(C)CC=NNc1nc(N)c2ncn([C@@H]3O[C@H](CSC(C)C)[C@@H](O)[C@H]3O)c2n1` [Compound 48, 5′-Deoxy-2-(N′-3-methyl-1-butylidenehydrazino)-5′-isopropylthioadenosine]: the “% displacement at 10^−5 M A1” value in data set [3] is given as 13.0%. In data set [1], this compound displayed a Ki of 1800 ± 230 nM. In addition, the Ki in data set [4] worked out at 409 ± 118 nM. In addition, in data set [5], the Emax was 56 ± 1% and it took 10.4 ± 1 µM to reach a half-maximal effect (EC50). Further, in data set [6] (read-out: Emax (%) A3), the Emax at 30 µM worked out at 26%.
